From US20250243196A1, “CITRON KINASE INHIBITORS” (The Cleveland Clinic Foundation, priority 2021, published 2025)
Where two headings read alike, the source gives them in different places.

System: NCI-60 human tumor cell line panel
Test: NCI-60 human tumor cell line screen (GI50)
Format: cell-based

For Cc1cc2c(-c3ccc(NC(=O)[C@H](N)CC(C)(C)C)cc3C)ccnc2[nH]1 [Compound F-90, (2R)-2-Amino-4,4-dimethyl-N-[3-methyl-4-(2-methyl-1H-pyrrolo[2,3-b]pyridin-4-yl)phenyl]pentanamide], the GI50 (786-0, Renal Cancer) was −5.744 Log(M), the GI50 (A498, Renal Cancer) was −5.657 Log(M) and the GI50 (A549/ATCC, Non-Small Cell Lung Cancer) was −4.985 Log(M). For the same compound, the GI50 (ACHN, Renal Cancer) was −4.978 Log(M), the GI50 (BT-549, Breast Cancer) was −5.200 Log(M) and the GI50 (CAKI-1, Renal Cancer) was −5.347 Log(M). For the same compound, the GI50 (CCRF-CEM, Leukemia) was −5.267 Log(M), the GI50 (COLO 205, Colon Cancer) was −5.741 Log(M) and the GI50 (DU-145, Prostate Cancer) was −4.905 Log(M). For the same compound, the GI50 (EKVX, Non-Small Cell Lung Cancer) was −4.950 Log(M), the GI50 (HCC-2998, Colon Cancer) was −5.236 Log(M) and the GI50 (HCT-15, Colon Cancer) was −5.345 Log(M). The GI50 (HCT-116, Colon Cancer) was −5.314 Log(M), the GI50 (HL-60(TB), Leukemia) was −5.539 Log(M) and the GI50 (HOP-62, Non-Small Cell Lung Cancer) was −4.941 Log(M). For the same compound, the GI50 (HOP-92, Non-Small Cell Lung Cancer) was −5.574 Log(M), the GI50 (HS 578T, Breast Cancer) was −5.849 Log(M) and the GI50 (HT29, Colon Cancer) was −5.565 Log(M). The GI50 (Homo sapiens, 786-0, 786-0, Renal Cancer, read-out: GI50) was 1.8 µM, the GI50 (Homo sapiens, A498, A498, Renal Cancer, read-out: GI50) was 2.2 µM and the GI50 (Homo sapiens, A549, A549/ATCC, Non-Small Cell Lung Cancer, read-out: GI50) was 10.3 µM. It also gave a GI50 (Homo sapiens, ACHN, Renal Cancer, read-out: GI50) of 10.5 µM, a GI50 (Homo sapiens, BT-549, BT-549, Breast Cancer, read-out: GI50) of 6.3 µM and a GI50 (Homo sapiens, CAKI-1, CAKI-1, Renal Cancer, read-out: GI50) of 4.5 µM. The GI50 (Homo sapiens, CCRF-CEM, Leukemia, read-out: GI50) was 5.4 µM, the GI50 (Homo sapiens, COLO 205, COLO 205, Colon Cancer, read-out: GI50) was 1.8 µM and the GI50 (Homo sapiens, DU-145, DU-145, Prostate Cancer, read-out: GI50) was 12.4 µM. The GI50 (Homo sapiens, EKVX, Non-Small Cell Lung Cancer, read-out: GI50) was 11.2 µM, the GI50 (Homo sapiens, HCC 2998, HCC-2998, Colon Cancer, read-out: GI50) was 5.8 µM and the GI50 (Homo sapiens, HCT-15, HCT-15, Colon Cancer, read-out: GI50) was 4.5 µM. It also gave a GI50 (Homo sapiens, HCT-116, HCT-116, Colon Cancer, read-out: GI50) of 4.9 µM, a GI50 (Homo sapiens, HL-60, HL-60(TB), Leukemia, read-out: GI50) of 2.9 µM and a GI50 (Homo sapiens, HOP-62, HOP-62, Non-Small Cell Lung Cancer, read-out: GI50) of 11.4 µM. It also gave a GI50 (Homo sapiens, HOP-92, HOP-92, Non-Small Cell Lung Cancer, read-out: GI50) of 2.7 µM, a GI50 (Homo sapiens, HT-29, HT29, Colon Cancer, read-out: GI50) of 2.7 µM and a GI50 (Homo sapiens, Hs-578T, HS 578T, Breast Cancer, read-out: GI50) of 1.4 µM. It also gave a GI50 (Homo sapiens, IGROV-1, IGROV1, Ovarian Cancer, read-out: GI50) of 12.2 µM, a GI50 (Homo sapiens, K562, K-562, Leukemia, read-out: GI50) of 2.8 µM and a GI50 (Homo sapiens, KM12, KM12, Colon Cancer, read-out: GI50) of 6.1 µM. The GI50 (Homo sapiens, LOX IMVI, Melanoma, read-out: GI50) was 6.2 µM, the GI50 (Homo sapiens, M14, M14, Melanoma, read-out: GI50) was 11 µM and the GI50 (Homo sapiens, MCF7, MCF7, Breast Cancer, read-out: GI50) was 5.5 µM. For the same compound, the GI50 (Homo sapiens, MDA-MB-231, MDA-MB-231/ATCC, Breast Cancer, read-out: GI50) was 7.4 µM, the GI50 (Homo sapiens, MDA-MB-435, MDA-MB-435, Breast Cancer, read-out: GI50) was 7 µM and the GI50 (Homo sapiens, MDA-MB-468, MDA-MB-468, Breast Cancer, read-out: GI50) was 2.7 µM. For the same compound, the GI50 (Homo sapiens, MOLT-4, MOLT-4, Leukemia, read-out: GI50) was 4.7 µM, the GI50 (Homo sapiens, Malme-3M, Melanoma, read-out: GI50) was 10.2 µM and the GI50 (Homo sapiens, NCI-H23, NCI-H23, Non-Small Cell Lung Cancer, read-out: GI50) was 12.2 µM. It also gave a GI50 (Homo sapiens, NCI-H226, NCI-H226, Non-Small Cell Lung Cancer, read-out: GI50) of 10.7 µM, a GI50 (Homo sapiens, NCI-H322M, Non-Small Cell Lung Cancer, read-out: GI50) of 14.3 µM and a GI50 (Homo sapiens, NCI-H460, NCI-H460, Non-Small Cell Lung Cancer, read-out: GI50) of 5.7 µM. It also gave a GI50 (Homo sapiens, NCI-H522, NCI-H522, Non-Small Cell Lung Cancer, read-out: GI50) of 13 µM, a GI50 (Homo sapiens, NCI/ADR-RES, Breast Cancer, read-out: GI50) of 13.4 µM and a GI50 (Homo sapiens, OVCAR-3, OVCAR-3, Ovarian Cancer, read-out: GI50) of 11.6 µM. It also gave a GI50 (Homo sapiens, OVCAR-4, OVCAR-4, Ovarian Cancer, read-out: GI50) of 7 µM, a GI50 (Homo sapiens, OVCAR-5, OVCAR-5, Ovarian Cancer, read-out: GI50) of 10.4 µM and a GI50 (Homo sapiens, OVCAR-8, OVCAR-8, Ovarian Cancer, read-out: GI50) of 13.6 µM. For the same compound, the GI50 (Homo sapiens, PC-3, Prostate Cancer, read-out: GI50) was 7.9 µM, the GI50 (Homo sapiens, RPMI-8226, RPMI-8226, Leukemia, read-out: GI50) was 2.8 µM and the GI50 (Homo sapiens, RXF 393, RXF 393, Renal Cancer, read-out: GI50) was 3.7 µM. It also gave a GI50 (Homo sapiens, SF-268, SF-268, CNS Cancer, read-out: GI50) of 11.1 µM, a GI50 (Homo sapiens, SF-295, SF-295, CNS Cancer, read-out: GI50) of 8.3 µM and a GI50 (Homo sapiens, SF-539, SF-539, CNS Cancer, read-out: GI50) of 8 µM. For the same compound, the GI50 (Homo sapiens, SK-MEL-2, SK-MEL-2, Melanoma, read-out: GI50) was 14 µM and the GI50 (Homo sapiens, SK-MEL-5, SK-MEL-5, Melanoma, read-out: GI50) was 2.5 µM.
